Assay results: patent publication US20230114728A1 (Venatorx Pharmaceuticals, Inc., priority 2019, published 2023)
Values after ≈ are worked out from the molar mass of the structure shown. Read-outs that look alike come from different tables or passages of the source.

Legend:
Experiment in all cases: Liquid broth MIC in Fastidious broth
Assay type in all cases: cell-based
N. gonorrhoeae FA1090 = conditions: Neisseria gonorrhoeae; N. gonorrhoeae strain FA1090; Fastidious broth; read-out: Minimum Inhibitory Concentration, N. gonorrhoeae FA1090
Description: (§1) Example V: In Vitro Antibacterial Assays for N. gonorrhoeae Strains
(§2) Additional antibacterial testing of the series was performed in 8 reference strains of N. gonorrhoeae (ATCC 49226, FA1090, WHO G, WHO L, WHO K, H041, WHO Z, and WHO Q). ATCC 49226, FA1090, WHO G, and WHO L produce wild type or wild-type like PBP2. WHO K, H041, WHO Z, and WHO Q produce mosaic PBP2. Liquid broth-based assays were used for antibacterial testing of PBP inhibitors in Neisseria gonorrhoeae. Briefly, cryo-preserved bacterial cultures of clinical strains were streaked for isolation on Chocolate Agar (72 g/L (2×) GC Agar Base (BD #228950) and 2% (2×) Hemoglobin was autoclaved at 121° C. for 20 minutes to sterilize. Once cooled to ˜50° C. the 2× GC Agar Base and 2× Hemoglobin solutions are combined and 1% IsoVitaleX Enrichment (BD #211876) was added to the solution). Strains were incubated at 36° C. and 5% CO2 to allow growth of colonies, 24 hours before inoculum preparation. 2-fold serial dilutions of test compounds were conducted in a 96 well plate with a final volume of 75 μL per well at 2-fold the final desired concentration in Fastidious broth (Remel #R07664). For preparation of assay inoculum, a direct suspension was prepared by aseptically swabbing all colonies from agar plates into culture tubes containing 2 mL of fresh sterile saline. After the dilution plates were set up, direct suspensions were then diluted in a cuvette containing sterile saline and the optical density was measured at 600 nm. Inocula were diluted such that 75 μL of this culture in Fastidious broth results in a starting bacterial concentration of 5×10^5 CFU/mL when added to the dilution plates. The plates were incubated for ˜24 hours at 36° C. and 5% CO2. The MIC was read visually as the lowest concentration well with <10% bacterial growth compared to wells of full growth.

N. gonorrhoeae WHO G = conditions: Neisseria gonorrhoeae, read-out: Minimum Inhibitory Concentration, N. gonorrhoeae WHO G
Description: as §1, §2

N. gonorrhoeae H041 = conditions: Neisseria gonorrhoeae, H041, read-out: Minimum Inhibitory Concentration, N. gonorrhoeae H041
Description: as §1, §2

[1] = tested on: N. gonorrhoeae ATCC 49226; conditions: Neisseria gonorrhoeae, ATCC49226; N. gonorrhoeae strain ATCC 49226; Fastidious broth; read-out: Minimum Inhibitory Concentration, N. gonorrhoeae ATCC 49226
Description: as §1, §2

N. gonorrhoeae WHO K = conditions: Neisseria gonorrhoeae, read-out: Minimum Inhibitory Concentration, N. gonorrhoeae WHO K
Description: as §1, §2

N. gonorrhoeae WHO L = conditions: Neisseria gonorrhoeae, read-out: Minimum Inhibitory Concentration, N. gonorrhoeae WHO L
Description: as §1, §2

[2] = N. gonorrhoeae strain WHO G, Fastidious broth
[3] = N. gonorrhoeae strain WHO L, Fastidious broth

What does the source list for O=C(O)c1c(F)ccc2c1OB(O)[C@@H](NC(=O)C(NC(=O)N1CCN(CCBr)C(=O)C1=O)c1c(F)cc(O)c(O)c1F)C2 (stereo partly drawn) [Example 38, (3R)-3-(2-(4-(2-bromoethyl)-2,3-dioxopiperazine-1-carboxamido)-2-(2,6-difluoro-3,4-dihydroxyphenyl)acetamido)-7-fluoro-2-hydroxy-3,4-dihydro-2H-benzo[e][1,2]oxaborinine-8-carboxylic acid]?
MIC (N. gonorrhoeae FA1090): 4 to 8 µg/mL (≈ 5.94 to 11.9 µM); MIC (N. gonorrhoeae WHO G): 16 to 32 µg/mL (≈ 23.8 to 47.5 µM); MIC (N. gonorrhoeae H041): > 64 µg/mL; MIC [1]: 16 to 32 µg/mL (≈ 23.8 to 47.5 µM); MIC (N. gonorrhoeae WHO K): > 64 µg/mL; MIC (N. gonorrhoeae WHO L): > 64 µg/mL

For O=C(Nc1ccc(O)c(O)c1Cl)NC(C(=O)N[C@H]1Cc2ccc(F)c(C(=O)O)c2OB1O)c1ncc(O)cc1F (stereo partly drawn) [Example 9, (3R)-3-(2-(3-(2-chloro-3,4-dihydroxyphenyl)ureido)-2-(3-fluoro-5-hydroxypyridin-2-yl)acetamido)-7-fluoro-2-hydroxy-3,4-dihydro-2H-benzo[e][1,2]oxaborinine-8-carboxylic acid], which MIC (N. gonorrhoeae FA1090) is on record?
Its MIC is 16 to 32 µg/mL (≈ 27.6 to 55.3 µM).

What about the MIC (N. gonorrhoeae WHO G; [2]) of the same compound?
The MIC was greater than 64 µg/mL.

What about the MIC (N. gonorrhoeae H041) of the same compound?
The MIC was greater than 64 µg/mL.

What about the MIC [1] of the same compound?
Its MIC is greater than 64 µg/mL.

And the MIC (N. gonorrhoeae WHO K)?
The MIC was greater than 64 µg/mL.

What about the MIC (N. gonorrhoeae WHO L; [3]) of the same compound?
Its MIC is greater than 64 µg/mL.

NCCCN1CCN(C(=O)N[C@H](C(=O)N[C@H]2Cc3ccc(F)c(C(=O)O)c3OB2O)c2ccc(O)c(O)c2Cl)C(=O)C1=O (single isomer, unassigned) [Example 28] was tested. Which MIC (N. gonorrhoeae FA1090) did it give?
Its MIC is greater than 64 µg/mL.

And the MIC (N. gonorrhoeae WHO G; [2])?
The MIC was greater than 64 µg/mL.

What about the MIC (N. gonorrhoeae H041) of the same compound?
Its MIC is greater than 64 µg/mL.

And the MIC [1]?
The MIC was greater than 64 µg/mL.

What about the MIC (N. gonorrhoeae WHO K) of the same compound?
The MIC was greater than 64 µg/mL.

And the MIC (N. gonorrhoeae WHO L; [3])?
The MIC was greater than 64 µg/mL.

For NCCCN1CCN(C(=O)N[C@@H](C(=O)N[C@H]2Cc3ccc(F)c(C(=O)O)c3OB2O)c2c(F)cc(O)c(O)c2Cl)C(=O)C1=O (single isomer, unassigned) [Example 27], which MIC (N. gonorrhoeae FA1090) is on record?
The MIC was 16 to 32 µg/mL (≈ 25 to 50 µM).

And the MIC (N. gonorrhoeae WHO G; [2])?
The MIC was 16 to 32 µg/mL (≈ 25 to 50 µM).

And the MIC (N. gonorrhoeae H041)?
The MIC was greater than 64 µg/mL.

What about the MIC [1] of the same compound?
Its MIC is greater than 64 µg/mL.

What about the MIC (N. gonorrhoeae WHO K) of the same compound?
Its MIC is greater than 64 µg/mL.

And the MIC (N. gonorrhoeae WHO L; [3])?
The MIC was greater than 64 µg/mL.

How did the MIC (N. gonorrhoeae FA1090) turn out when O=C(NC(C(=O)N[C@H]1Cc2ccc(F)c(C(=O)O)c2OB1O)c1ncc(O)cc1F)c1ccc(O)c(O)c1Cl (stereo partly drawn) [Example 8, (3R)-3-(2-(2-chloro-3,4-dihydroxybenzamido)-2-(3-fluoro-5-hydroxypyridin-2-yl)acetamido)-7-fluoro-2-hydroxy-3,4-dihydro-2H-benzo[e][1,2]oxaborinine-8-carboxylic acid] was run?
Its MIC is 4 to 8 µg/mL (≈ 7.1 to 14.2 µM).

And the MIC (N. gonorrhoeae WHO G; [2])?
The MIC was 16 to 32 µg/mL (≈ 28.4 to 56.8 µM).

And the MIC (N. gonorrhoeae H041)?
Its MIC is greater than 64 µg/mL.

What about the MIC [1] of the same compound?
The MIC was greater than 64 µg/mL.

What about the MIC (N. gonorrhoeae WHO K) of the same compound?
The MIC was greater than 64 µg/mL.

What about the MIC (N. gonorrhoeae WHO L; [3]) of the same compound?
Its MIC is greater than 64 µg/mL.

NCCN1CCN(C(=O)N[C@@H](C(=O)N[C@H]2Cc3ccc(F)c(C(=O)O)c3OB2O)c2c(F)cc(O)c(O)c2Cl)C(=O)C1=O (single isomer, unassigned) [Example 26] was tested. Which MIC (N. gonorrhoeae FA1090) did it give?
Its MIC is 16 to 32 µg/mL (≈ 25.6 to 51.1 µM).

What about the MIC (N. gonorrhoeae WHO G; [2]) of the same compound?
Its MIC is greater than 64 µg/mL.

What about the MIC (N. gonorrhoeae H041) of the same compound?
Its MIC is greater than 64 µg/mL.

What about the MIC [1] of the same compound?
Its MIC is greater than 64 µg/mL.

What about the MIC (N. gonorrhoeae WHO K) of the same compound?
The MIC was greater than 64 µg/mL.

And the MIC (N. gonorrhoeae WHO L; [3])?
Its MIC is greater than 64 µg/mL.

For NC(C(=O)N[C@H]1Cc2ccc(F)c(C(=O)O)c2OB1O)c1c(F)cc(O)c(O)c1Cl (stereo partly drawn) [Example 25, (3R)-3-(2-amino-2-(2-chloro-6-fluoro-3,4-dihydroxyphenyl)acetamido)-7-fluoro-2-hydroxy-3,4-dihydro-2H-benzo[e][1,2]oxaborinine-8-carboxylic acid], which MIC (N. gonorrhoeae FA1090) is on record?
Its MIC is greater than 64 µg/mL.

What about the MIC (N. gonorrhoeae WHO G; [2]) of the same compound?
The MIC was greater than 64 µg/mL.

What about the MIC (N. gonorrhoeae H041) of the same compound?
Its MIC is greater than 64 µg/mL.

And the MIC [1]?
Its MIC is greater than 64 µg/mL.

And the MIC (N. gonorrhoeae WHO K)?
Its MIC is greater than 64 µg/mL.

And the MIC (N. gonorrhoeae WHO L; [3])?
The MIC was greater than 64 µg/mL.
